Results published in paper PMC5241873, “The clinically approved antiviral drug sofosbuvir inhibits Zika virus replication” (Scientific Reports, 2017).

Assays:
[1] = system: T1, recombinant ZVRP (C-terminal portion); assay: RdRp assay, labelled UTP incorporation on ZIKV RNA, ALPHA detection; assay type: biochemical, Zika virus; conditions: 0.4 mM each ATP, GTP, CTP and labelled UTP; 3 mM MgCl2; pH 7.3; 30 °C; 1 h
T1 construct: gene NS5; pET-41b+ BamHI/SacI, N-terminal GST tag, E. coli BL21; B3U3M3 is printed for the 3D model only

[2] = system: T2, ZIKV RNA polymerase (ZVRP), partially purified from ZIKV-infected BHK-21 cells; assay: as above; assay type: biochemical, Zika virus; conditions: 0.4 mM each ATP, GTP, CTP and labelled UTP; 3 mM MgCl2; pH 7.3; 30 °C; 1 h; partially purified enzyme
T2 construct: gene NS5; mature NS5 from the genome polyprotein; native, partially purified from infected BHK-21 cells (100,000 x g supernatant, DEAE- and phospho-cellulose)

SMILES	IC50 [1]	IC50 [2]
Cc1cn([C@H]2C[C@H](N=[N+]=[N-])[C@@H](COP(=O)(O)OP(=O)(O)OP(=O)(O)O)O2)c(=O)[nH]c1=O [AZT-TP, AZT triphosphate]	> 10 µM	> 10 µM
NC(=O)c1ncn([C@@H]2O[C@H](COP(=O)(O)OP(=O)(O)OP(=O)(O)O)[C@@H](O)[C@H]2O)n1 [RTP, ribavirin triphosphate]	0.62 ± 0.05 µM	0.21 ± 0.06 µM
C[C@@]1(F)[C@H](O)[C@@H](COP(=O)(O)OP(=O)(O)OP(=O)(O)O)O[C@H]1n1ccc(=O)[nH]c1=O [STP, β-d-2′-deoxy-2′-α-fluoro-2′-β-C-methyluridine triphosphate]	0.61 ± 0.08 µM	0.38 ± 0.03 µM
